Reference: ChEMBL document CHEMBL3045039, “Computational studies of new 1,4-dihydropyridines containing 4-(5)-chloro-2-ethyl-5-(4)-imidazolyl substituent: QSAR and docking” (Med Chem Res, 2010)

Biological target: Voltage-dependent L-type calcium channel subunit alpha-1C (Cavia porcellus, UniProt O35505)
Experiment: Inhibition of calcium channel in Cavia porcellus (guinea pig) ileum assessed as inhibition of KCl-induced contraction
Assay type: tissue-based

Sequence of Voltage-dependent L-type calcium channel subunit alpha-1C (O35505 whole entry): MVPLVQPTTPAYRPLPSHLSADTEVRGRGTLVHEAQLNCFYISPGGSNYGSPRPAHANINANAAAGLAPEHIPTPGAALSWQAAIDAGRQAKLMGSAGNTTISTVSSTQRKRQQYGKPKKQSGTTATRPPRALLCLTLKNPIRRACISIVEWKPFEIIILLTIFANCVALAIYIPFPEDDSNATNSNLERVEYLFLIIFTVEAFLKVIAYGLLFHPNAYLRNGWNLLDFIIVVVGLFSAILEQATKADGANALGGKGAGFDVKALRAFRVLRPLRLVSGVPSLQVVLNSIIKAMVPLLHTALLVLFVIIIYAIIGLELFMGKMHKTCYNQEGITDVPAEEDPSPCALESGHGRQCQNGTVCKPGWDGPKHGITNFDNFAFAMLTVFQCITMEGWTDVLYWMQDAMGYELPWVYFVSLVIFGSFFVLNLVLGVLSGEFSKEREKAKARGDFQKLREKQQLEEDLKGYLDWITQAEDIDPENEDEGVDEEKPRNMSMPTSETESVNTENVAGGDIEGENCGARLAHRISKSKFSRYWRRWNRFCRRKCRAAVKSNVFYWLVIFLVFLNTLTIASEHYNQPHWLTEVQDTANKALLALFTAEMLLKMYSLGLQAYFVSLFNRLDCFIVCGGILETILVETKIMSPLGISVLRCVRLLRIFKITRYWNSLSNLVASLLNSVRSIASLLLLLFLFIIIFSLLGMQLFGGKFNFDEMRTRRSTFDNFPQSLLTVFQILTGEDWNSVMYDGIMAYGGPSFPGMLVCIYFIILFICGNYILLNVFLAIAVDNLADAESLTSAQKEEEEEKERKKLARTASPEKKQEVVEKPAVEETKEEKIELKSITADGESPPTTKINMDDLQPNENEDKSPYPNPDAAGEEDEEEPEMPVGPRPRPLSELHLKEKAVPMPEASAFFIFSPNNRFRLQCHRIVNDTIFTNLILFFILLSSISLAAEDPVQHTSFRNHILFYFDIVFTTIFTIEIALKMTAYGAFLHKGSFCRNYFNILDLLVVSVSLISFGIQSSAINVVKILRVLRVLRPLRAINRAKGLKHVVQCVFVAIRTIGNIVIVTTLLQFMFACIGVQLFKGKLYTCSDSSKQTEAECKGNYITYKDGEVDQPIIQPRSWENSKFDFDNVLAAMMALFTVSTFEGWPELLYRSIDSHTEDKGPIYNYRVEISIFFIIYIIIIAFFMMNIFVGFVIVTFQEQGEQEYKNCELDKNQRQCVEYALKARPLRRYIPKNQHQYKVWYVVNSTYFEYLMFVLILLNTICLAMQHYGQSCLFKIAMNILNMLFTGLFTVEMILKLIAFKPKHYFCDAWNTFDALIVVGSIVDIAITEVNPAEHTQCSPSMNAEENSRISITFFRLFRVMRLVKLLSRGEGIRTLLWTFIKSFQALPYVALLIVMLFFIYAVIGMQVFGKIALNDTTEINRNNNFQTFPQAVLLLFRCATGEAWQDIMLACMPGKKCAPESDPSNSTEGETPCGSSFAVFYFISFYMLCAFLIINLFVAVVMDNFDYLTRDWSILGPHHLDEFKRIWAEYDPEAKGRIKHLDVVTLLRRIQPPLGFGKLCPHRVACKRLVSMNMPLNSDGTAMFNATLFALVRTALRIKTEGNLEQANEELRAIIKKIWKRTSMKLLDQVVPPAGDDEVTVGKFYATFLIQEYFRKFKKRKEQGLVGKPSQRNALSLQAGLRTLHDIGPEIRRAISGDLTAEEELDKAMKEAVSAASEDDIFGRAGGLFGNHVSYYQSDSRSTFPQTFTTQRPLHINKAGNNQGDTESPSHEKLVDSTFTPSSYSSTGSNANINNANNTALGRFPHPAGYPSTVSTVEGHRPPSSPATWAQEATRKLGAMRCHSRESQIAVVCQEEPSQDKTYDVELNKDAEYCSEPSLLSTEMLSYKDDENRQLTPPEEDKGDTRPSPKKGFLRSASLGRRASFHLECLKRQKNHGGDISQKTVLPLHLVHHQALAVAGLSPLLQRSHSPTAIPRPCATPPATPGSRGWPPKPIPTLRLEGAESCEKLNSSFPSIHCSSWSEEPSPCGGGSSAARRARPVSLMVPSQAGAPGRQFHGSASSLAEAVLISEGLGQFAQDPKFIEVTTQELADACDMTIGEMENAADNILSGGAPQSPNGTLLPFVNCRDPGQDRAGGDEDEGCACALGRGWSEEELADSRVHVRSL

Row | SMILES | IC50
1 | CCOC(=O)C1=C(C)NC(C)=C(C(=O)OC(C)C)C1c1[nH]c(CC)nc1Cl (stereo not drawn) | 0.564 nM
2 | CCCOC(=O)C1=C(C)NC(C)=C(C(=O)OCCC)C1c1[nH]c(CC)nc1Cl | 0.13 nM
3 | CCc1nc(Cl)c(C2C(C(=O)OCCCc3ccccc3)=C(C)NC(C)=C2C(=O)OCCCc2ccccc2)[nH]1 | 0.0668 nM
4 | CCc1nc(Cl)c(C2C(C(=O)OC)=C(C)NC(C)=C2C(=O)OC)[nH]1 | 0.596 nM
5 | CCOC(=O)C1=C(C)NC(C)=C(C(=O)OCC2CCCCC2)C1c1[nH]c(CC)nc1Cl (stereo not drawn) | 1.07 nM
6 | CCc1nc(Cl)c(C2C(C(=O)OC3CCCC3)=C(C)NC(C)=C2C(=O)OC2CCCC2)[nH]1 | 0.212 nM
7 | CCOC(=O)C1=C(C)NC(C)=C(C(=O)OC(C)(C)C)C1c1[nH]c(CC)nc1Cl (stereo not drawn) | 99.8 nM
8 | CCc1nc(Cl)c(C2C(C(=O)OC)=C(C)NC(C)=C2C(=O)OC(C)C)[nH]1 (stereo not drawn) | 0.488 nM
9 | CCc1nc(Cl)c(C2C(C(=O)OC(C)C)=C(C)NC(C)=C2C(=O)OC(C)C)[nH]1 | 0.748 nM
10 | CCc1nc(C2C(C(=O)OCCc3ccccc3)=C(C)NC(C)=C2C(=O)OCCc2ccccc2)c(Cl)[nH]1 | 0.0437 nM
11 | CCc1nc(Cl)c(C2C(C(=O)OC)=C(C)NC(C)=C2C(=O)OC(C)(C)C)[nH]1 (stereo not drawn) | 50.8 nM
12 | CCCOC(=O)C1=C(C)NC(C)=C(C(=O)OC)C1c1[nH]c(CC)nc1Cl (stereo not drawn) | 0.146 nM
13 | CCc1nc(Cl)c(C2C(C(=O)OC(C)(C)C)=C(C)NC(C)=C2C(=O)OC(C)(C)C)[nH]1 | 34.2 nM
14 | CCc1nc(Cl)c(C2C(C(=O)OC3CCCCC3)=C(C)NC(C)=C2C(=O)OC2CCCCC2)[nH]1 | 0.132 nM
15 | CCc1nc(Cl)c(C2C(C(=O)OC)=C(C)NC(C)=C2C(=O)OCc2ccccc2)[nH]1 (stereo not drawn) | 1.75 nM
16 | CCCOC(=O)C1=C(C)NC(C)=C(C(=O)OCC)C1c1[nH]c(CC)nc1Cl (stereo not drawn) | 0.543 nM
17 | CCc1nc(Cl)c(C2C(C(=O)OCC(C)C)=C(C)NC(C)=C2C(=O)OCC(C)C)[nH]1 | 2.64 nM
18 | CCOC(=O)C1=C(C)NC(C)=C(C(=O)OCCc2ccccc2)C1c1nc(CC)[nH]c1Cl (stereo not drawn) | 0.0457 nM
19 | CCc1nc(C2C(C(=O)OCc3ccccc3)=C(C)NC(C)=C2C(=O)OCc2ccccc2)c(Cl)[nH]1 | 0.906 nM
20 | CCOC(=O)C1=C(C)NC(C)=C(C(=O)OCC)C1c1[nH]c(CC)nc1Cl | 0.158 nM
21 | CCOC(=O)C1=C(C)NC(C)=C(C(=O)OCc2ccccc2)C1c1[nH]c(CC)nc1Cl (stereo not drawn) | 2.66 nM
22 | CCc1nc(C2C(C(=O)OC)=C(C)NC(C)=C2C(=O)OCCc2ccccc2)c(Cl)[nH]1 (stereo not drawn) | 0.0309 nM
23 | CCOC(=O)C1=C(C)NC(C)=C(C(=O)OC)C1c1[nH]c(CC)nc1Cl (stereo not drawn) | 2.02 nM
